Results: article PMC12268638, “Structural insights into the catalytic cycle of G protein–coupled receptor kinase 5 and a possible regulatory site for potassium ion” (The Journal of Biological Chemistry, 2025)
Where two headings read alike, the source gives them in different places.

Columns and labels:
GRK2 = target: T1, GRK2 (Homo sapiens, UniProt P25098, S670A); test: GRK kinase inhibition assay ([γ-32P]-ATP phosphorylation of tubulin); type: biochemical; settings: substrate tubulin; for IC50: mean ± SD
T1 construct: Full-length WT GRK5, GRK2, or GRK6 at a final concentration of 2 μM; made in house; host or cells: Sf9 insect cells
T1 sequence (P25098 1-689 S670A): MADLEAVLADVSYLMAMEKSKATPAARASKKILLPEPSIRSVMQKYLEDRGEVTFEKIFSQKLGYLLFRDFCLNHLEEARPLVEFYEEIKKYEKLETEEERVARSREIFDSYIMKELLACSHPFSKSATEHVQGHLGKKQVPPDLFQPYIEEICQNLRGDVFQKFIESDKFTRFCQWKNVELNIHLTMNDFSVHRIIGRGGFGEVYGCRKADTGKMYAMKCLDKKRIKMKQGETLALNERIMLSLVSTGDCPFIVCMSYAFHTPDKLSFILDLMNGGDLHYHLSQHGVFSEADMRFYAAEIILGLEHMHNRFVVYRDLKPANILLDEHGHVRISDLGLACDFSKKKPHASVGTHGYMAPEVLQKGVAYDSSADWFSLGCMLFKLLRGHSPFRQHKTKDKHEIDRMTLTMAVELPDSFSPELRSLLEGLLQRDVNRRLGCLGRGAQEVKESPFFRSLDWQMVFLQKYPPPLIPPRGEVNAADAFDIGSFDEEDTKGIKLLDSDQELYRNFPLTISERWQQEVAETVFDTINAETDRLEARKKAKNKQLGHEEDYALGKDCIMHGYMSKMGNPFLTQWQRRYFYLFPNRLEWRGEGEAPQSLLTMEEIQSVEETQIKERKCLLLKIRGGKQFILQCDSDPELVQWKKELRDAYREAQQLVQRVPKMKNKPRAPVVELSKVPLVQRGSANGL
Description: Following the protocol in Ref. ([19]), pMAL-vector plasmids bearing DNA encoding human GRK5WT or GRK5D311N (residues 1–590 followed by a hexahistidine tag) were transfected into E. coli Rosetta (DE3) and induced with isopropyl β-D-1-thiogalactopyranoside. Cells lysed using an Emulsiflex-C3 were treated with DNase I and 1 mM MgCl2 at room temperature for 10 min before centrifugation at 40,000g. GRK5 in the soluble fraction was then loaded onto a Ni^2+–NTA column for metal-affinity purification. Eluted GRK5 fractions were then loaded onto a tandem HiTrap Q HP-HiTrap SP HP column to capture impurities in the Q HP column, and GRK5 was eluted from the SP column using an NaCl concentration gradient from 100 to 600 mM. […] Purified GRK5 was used directly in crystallization or flash-frozen with liquid nitrogen and stored at −80 °C for later usage. Human GRK2S670A and GRK6FL_pal(−) are expressed in Sf9 insect cells and purified as described previously ([26], [31]). The S670A mutation in GRK2 eliminates a heterogenous mitogen-activated kinase phosphorylation site, and GRK6FL_pal(−) was used to remove palmitoylation sites in order to make expression and purification easier.
(§1) GRK inhibition assays were performed in 20 mM Hepes (pH 7.0), 2 mM MgCl2, 0.025% n-dodecyl-β-D-maltoside with 50 nM human GRK5WT as purified previously. […] A range of salt concentrations was added 30 s prior to 5 min reactions initiated by exposing samples to light followed by addition of 5 μM ATP supplemented with radioactive [γ-^32P]-ATP at 60 Ci/mmol (PerkinElmer Life Sciences) at room temperature. […] Reactions were quenched with 4X SDS loading buffer, separated in SDS-PAGE, dried, and read by phosphorimaging and then quantified via a Personal Molecular Imager and Quantity One 1-D Analysis Software. Data were analyzed via GraphPad Prism (GraphPad Software, Inc), and three-parameter dose-dependent curves (Hill coefficient = −1) plotting phosphate transferred against inhibitor concentration were used for the calculation of IC50 values. At least three replicates were obtained to calculate the mean and standard deviation of IC50 values. See Figure S4 for representative raw and processed data.

GRK6 = target: T2, GRK6 (Homo sapiens, UniProt P43250, C561S/C562S/C565S); test: as above; type: biochemical; settings: substrate tubulin; for IC50: mean ± SD
T2 construct: Full-length WT GRK5, GRK2, or GRK6 at a final concentration of 2 μM; made in house; host or cells: Sf9 insect cells
T2 sequence (P43250 whole entry C561S/C562S/C565S): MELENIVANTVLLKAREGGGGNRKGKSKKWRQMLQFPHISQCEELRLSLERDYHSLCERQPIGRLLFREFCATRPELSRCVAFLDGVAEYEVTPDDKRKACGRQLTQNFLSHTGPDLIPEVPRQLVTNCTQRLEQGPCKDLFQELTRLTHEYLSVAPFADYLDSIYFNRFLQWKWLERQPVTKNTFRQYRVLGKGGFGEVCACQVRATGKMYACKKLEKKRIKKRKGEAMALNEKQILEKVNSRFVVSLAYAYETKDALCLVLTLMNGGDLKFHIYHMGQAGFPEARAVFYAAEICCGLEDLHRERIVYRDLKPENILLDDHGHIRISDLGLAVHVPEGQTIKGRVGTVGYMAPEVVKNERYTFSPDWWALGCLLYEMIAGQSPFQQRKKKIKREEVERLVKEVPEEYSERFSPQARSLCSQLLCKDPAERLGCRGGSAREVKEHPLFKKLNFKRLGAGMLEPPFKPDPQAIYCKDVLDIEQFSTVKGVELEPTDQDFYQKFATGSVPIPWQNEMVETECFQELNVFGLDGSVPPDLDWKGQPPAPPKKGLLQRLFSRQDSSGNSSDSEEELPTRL

GRK5 = target: T3, GRK5 (Homo sapiens, UniProt P34947); test: Differential scanning fluorimetry thermal shift assay; type: binding; settings: for effect of salt on Tm of ATP·Mg2+-bound GRK5 / effect of salt on Tm of GRK5: increasing salt concentrations; for effect of salt on Tm of GRK5: no ligand; for increase of Tm of GRK5 upon ligand binding: relative to unliganded GRK5, ligand 5 mM, 2 μM GRK5
T3 construct: human GRK5WT or GRK5D311N (residues 1–590 followed by a hexahistidine tag); hexahistidine (C); made in house; host or cells: E. coli Rosetta (DE3)
T3 sequence (P34947 whole entry, the tested form may be a part): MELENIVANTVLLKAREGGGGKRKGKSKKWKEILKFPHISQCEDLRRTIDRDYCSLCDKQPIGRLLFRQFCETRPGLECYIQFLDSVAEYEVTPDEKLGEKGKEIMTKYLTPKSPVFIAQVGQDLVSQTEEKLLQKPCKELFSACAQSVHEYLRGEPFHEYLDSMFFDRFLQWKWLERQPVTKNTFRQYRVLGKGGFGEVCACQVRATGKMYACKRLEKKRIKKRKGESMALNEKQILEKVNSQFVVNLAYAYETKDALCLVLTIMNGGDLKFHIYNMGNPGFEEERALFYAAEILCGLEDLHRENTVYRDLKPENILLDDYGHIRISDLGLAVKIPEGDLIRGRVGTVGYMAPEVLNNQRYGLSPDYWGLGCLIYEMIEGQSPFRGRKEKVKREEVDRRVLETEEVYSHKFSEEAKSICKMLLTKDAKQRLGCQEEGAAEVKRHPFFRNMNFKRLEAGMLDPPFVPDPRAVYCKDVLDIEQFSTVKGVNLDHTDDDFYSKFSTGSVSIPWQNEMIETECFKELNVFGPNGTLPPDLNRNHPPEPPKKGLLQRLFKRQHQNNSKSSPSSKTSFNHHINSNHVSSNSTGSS
Description: Samples were mixed with Protein Thermal Shift dye to measure unfolding as a function of temperature. The Tm values were subtracted by the Tm of GRK5 in the same condition without the addition of salt to obtain ΔTm. Error bars correspond to SD (box) from three or more replicates (circles). […] Orange corresponds to GRK5 with Sgv and pink with AMP in buffer alone (20 mM Hepes [pH 7.2], 2 mM MgCl2). A one-tailed t test was used to determine significance (ns: p > 0.05, ∗p ≤ 0.05, ∗∗p ≤ 0.01, ∗∗∗p ≤ 0.001, and ∗∗∗∗p ≤ 0.0001). GRK, G protein–coupled receptor kinase; ns, not significant; Sgv, sangivamycin.
Full-length WT GRK5, GRK2, or GRK6 at a final concentration of 2 μM in the absence or the presence of different ligands were mixed with the Protein Thermal Shift Dye at a final concentration of 1X in buffer containing 20 mM Hepes (pH 7.2), 2 mM MgCl2, and 1 mM TCEP in addition to different concentrations of salts. The melting points were measured using a QuantStudio5 Real-Time PCR System in a 384-well transparent plate with a final reaction volume of 10 μl per well. […] Ligands including ATP, AMP–PNP, ADP, AMP, and Sgv were added at a final concentration of 5 mM. Readouts were measured and analyzed with Protein Thermal Shift Software to obtain Boltzmann Tm values. At least three replicates of individual runs from the same preparation of protein were performed to obtain the mean and standard deviation of Tm values.

human GRK5WT = target: T4, human GRK5WT (Homo sapiens, UniProt P34947); test: GRK kinase inhibition assay ([γ-32P]-ATP phosphorylation of tubulin or Rho*); type: biochemical; settings: for change in inhibition potency caused by K3Cit: GRK5 phosphorylation of tubulin and Rho*
T4 construct: human GRK5WT or GRK5D311N (residues 1–590 followed by a hexahistidine tag); hexahistidine (C); made in house; host or cells: E. coli Rosetta (DE3)
T4 sequence (P34947 whole entry, the tested form may be a part): as above
Description: as §1, with “Data were analyzed via GraphPad Prism (GraphPad Software, Inc), and three-parameter dose-dependent curves (Hill coefficient = −1) plotting phosphate transferred against inhibitor concentration were used for the calculation of IC50 values.” left out

[1] = IC50 no K3Cit vs with 2 mM K3Cit, substrate tubulin
[2] = IC50 no K3Cit vs with 6 mM K3Cit, substrate Rho* in ROS
[3] = read-out: IC50 (no K3Cit), substrate Rho* in ROS, without K3Cit, mean and SD
[4] = read-out: IC50 (no K3Cit), substrate tubulin, without K3Cit, mean and SD

Row | SMILES | GRK2 (Hill slope) (GRK2) | IC50 (GRK2) | GRK6 (Hill slope) (GRK6) | IC50 (GRK6) | effect of salt on Tm of ATP·Mg2+-bound GRK5 (GRK5; in the presence of ATP·Mg2+) | effect of salt on Tm of GRK5 (GRK5) | Fold-change (human GRK5WT; [1]) | Fold-change (human GRK5WT; [2]) | increase of Tm of GRK5 upon ligand binding (GRK5) | also measured
1 | [Cl-].[Na+] [NaCl] | −1.2 | 21000 ± 2000 µM | −1.3 | 8000 ± 7000 µM | decreased | reduced it |  |  |  | 
2 | Nc1ncnc2c1ncn2[C@@H]1O[C@H](COP(=O)(O)OP(=O)(O)O)[C@@H](O)[C@H]1O [ADP] |  |  |  |  |  |  | 3 | 1.5 |  | change in inhibition potency caused by K3Cit (human GRK5WT): did not cause changes; IC50 (human GRK5WT; [3]): 56 ± 6 µM; IC50 (human GRK5WT; [4]): 28 ± 1 µM
3 | NC(=O)c1cn([C@@H]2O[C@H](CO)[C@@H](O)[C@H]2O)c2ncnc(N)c12 [Sgv, sangivamycin] |  |  |  |  |  |  | 8 | 6 | 5 °C | reduction of the apparent IC50 by K3Cit (human GRK5WT; GRK5 phosphorylation of tubulin, 2 mM K3Cit): eightfold; IC50 (human GRK5WT; IC50 (no K3Cit), substrate Rho* in ROS, without K3Cit, mean and SD): 4.5 ± 0.5 µM; IC50 (human GRK5WT; IC50 (no K3Cit), substrate tubulin, without K3Cit, mean and SD): 11 ± 3 µM; increase of potency of inhibition by K3Cit (human GRK5WT; tubulin and receptor Rho* phosphorylation): ~8 fold
4 | Nc1ncnc2c1ncn2[C@@H]1O[C@H](COP(=O)(O)O)[C@@H](O)[C@H]1O [AMP] |  |  |  |  |  |  | 1.5 | 2 | does not stabilize GRK5 as much as Sgv | change in inhibition potency caused by K3Cit (human GRK5WT): did not cause changes; IC50 (human GRK5WT; [3]): 1000 ± 100 µM; IC50 (human GRK5WT; [4]): 700 ± 200 µM
5 | O=C([O-])CC(O)(CC(=O)[O-])C(=O)[O-].[Na+].[Na+].[Na+] [Na3Cit, sodium citrate] | −1.6 | 700 ± 200 µM | −1.2 | 1300 ± 900 µM |  |  |  |  |  | 
6 | Nc1ncnc2c1ncn2[C@@H]1O[C@H](COP(=O)(O)OP(=O)([O-])OP(=O)([O-])O)[C@@H](O)[C@H]1O.[Mg+2] [ATP·Mg^2+] |  |  |  |  |  |  |  |  | 9 °C | 
7 | [Cl-].[K+] [KCl] | −1.6 | 20000 ± 2000 µM | −2.3 | 14000 ± 4000 µM | decreased | did not increase GRK5 stability at any concentration |  |  |  | lower potency than the corresponding citrate salts (human GRK5WT; GRK5, tubulin as the substrate): about 35 fold; GRK5 (Hill slope) (human GRK5WT; substrate Rho* (LMNG)): −1.6; IC50 (human GRK5WT; substrate Rho* (LMNG), mean ± SD, read-out: GRK5 IC50): 11000 ± 2000 µM; GRK5 (Hill slope) (human GRK5WT; substrate Rho* (ROS)): −1.9; IC50 (human GRK5WT; substrate Rho* (ROS), mean ± SD, read-out: GRK5 IC50): 18000 ± 10000 µM; GRK5 (Hill slope) (human GRK5WT; substrate tubulin): −1.7; IC50 (human GRK5WT; substrate tubulin, mean ± SD, read-out: GRK5 IC50): 55000 ± 6000 µM
8 | O.O=C([O-])CC(O)(CC(=O)[O-])C(=O)[O-].[K+].[K+].[K+] [K3Cit, potassium citrate tribasic monohydrate] | −1.3 | 800 ± 500 µM | −0.9 | 900 ± 500 µM | biphasic behavior | raised the Tm of GRK5 proportionally |  |  |  | decrease of Tm of GRK5 (GRK5; in the presence of ATP·Mg2+, 20 mM K3Cit): 2 to 3 °C; effect of salt on Tm of Sgv-bound GRK5 (GRK5; in the presence of Sgv): further increased
